# Results reported in PMC2358886, “Evolution of pharmacologic specificity in the pregnane X receptor” (BMC Evolutionary Biology, 2008).
# Like-named read-outs stand apart in the source and are kept apart here.
# Experiments:
# zebrafish PXR [1] = target: T1, zebrafish PXR (Danio rerio, UniProt A5WYG8); details: for zfPXR Activity: -log(EC50), EC50 in molar units, activation of zebrafish PXR
# T1 sequence (A5WYG8 144-430): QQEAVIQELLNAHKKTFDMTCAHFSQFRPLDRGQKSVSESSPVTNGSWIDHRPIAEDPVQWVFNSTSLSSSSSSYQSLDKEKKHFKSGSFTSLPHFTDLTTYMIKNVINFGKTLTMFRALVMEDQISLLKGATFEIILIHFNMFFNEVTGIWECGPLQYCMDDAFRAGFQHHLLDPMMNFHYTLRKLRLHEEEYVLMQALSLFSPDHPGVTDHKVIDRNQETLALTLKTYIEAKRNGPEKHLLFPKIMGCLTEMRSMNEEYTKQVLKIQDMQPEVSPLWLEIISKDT
# HepG2 cells [2] = test system: HepG2 cells
# mouse PXR = target: T2, mouse PXR (Mus musculus, UniProt O54915); details: for Mouse PXR Activity: -log(EC50), EC50 in molar units
# T2 sequence (O54915 1-431): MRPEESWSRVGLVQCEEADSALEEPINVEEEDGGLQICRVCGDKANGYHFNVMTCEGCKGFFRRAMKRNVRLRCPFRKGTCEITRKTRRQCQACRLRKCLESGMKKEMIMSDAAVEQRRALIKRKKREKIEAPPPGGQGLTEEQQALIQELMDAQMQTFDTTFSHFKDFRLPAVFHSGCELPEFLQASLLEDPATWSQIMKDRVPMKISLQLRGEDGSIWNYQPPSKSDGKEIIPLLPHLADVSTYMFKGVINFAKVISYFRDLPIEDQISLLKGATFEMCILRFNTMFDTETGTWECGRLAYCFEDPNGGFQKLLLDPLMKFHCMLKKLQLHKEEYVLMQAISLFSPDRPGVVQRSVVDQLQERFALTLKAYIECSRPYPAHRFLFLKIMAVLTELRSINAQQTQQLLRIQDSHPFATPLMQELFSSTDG
# rat PXR = target: T3, rat PXR (Rattus norvegicus, UniProt Q9R1A7); details: for Rat PXR Activity: -log(EC50), EC50 in molar units
# T3 sequence (Q9R1A7 1-431): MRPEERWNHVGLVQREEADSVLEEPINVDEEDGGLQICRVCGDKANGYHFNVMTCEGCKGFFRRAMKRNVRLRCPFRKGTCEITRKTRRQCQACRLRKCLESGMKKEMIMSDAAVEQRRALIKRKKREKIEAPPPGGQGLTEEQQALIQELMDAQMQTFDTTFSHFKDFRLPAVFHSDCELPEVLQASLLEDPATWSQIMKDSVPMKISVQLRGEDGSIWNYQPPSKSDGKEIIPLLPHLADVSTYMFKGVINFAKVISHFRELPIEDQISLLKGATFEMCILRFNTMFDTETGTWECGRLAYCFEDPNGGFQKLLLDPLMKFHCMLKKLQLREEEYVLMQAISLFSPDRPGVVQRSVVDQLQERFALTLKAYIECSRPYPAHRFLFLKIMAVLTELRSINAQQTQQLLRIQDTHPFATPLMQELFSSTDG
# human PXR [3] = target: T4, human PXR (Homo sapiens, UniProt O75469); experiment: PXR activation luciferase reporter assay, human PXR in HepG2-NTCP cells
# T4 sequence (O75469 1-434): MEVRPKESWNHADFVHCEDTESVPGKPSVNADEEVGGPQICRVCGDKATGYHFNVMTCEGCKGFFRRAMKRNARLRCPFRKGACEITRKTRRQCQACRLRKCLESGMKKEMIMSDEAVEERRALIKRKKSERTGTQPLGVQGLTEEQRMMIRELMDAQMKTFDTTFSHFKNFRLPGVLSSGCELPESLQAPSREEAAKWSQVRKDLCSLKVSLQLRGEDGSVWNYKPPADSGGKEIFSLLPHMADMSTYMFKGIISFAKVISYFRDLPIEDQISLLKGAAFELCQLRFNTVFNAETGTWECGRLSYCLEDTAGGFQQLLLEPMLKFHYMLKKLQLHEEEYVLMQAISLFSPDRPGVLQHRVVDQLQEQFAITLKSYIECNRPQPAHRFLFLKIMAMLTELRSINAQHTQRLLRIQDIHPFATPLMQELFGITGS
# rabbit PXR = target: T5, rabbit PXR (Oryctolagus cuniculus, UniProt Q9TU02); experiment: PXR activation luciferase reporter assay, rabbit PXR; details: for Rabbit PXR efficacy, ε: relative to 50 μM 5α-pregnan-3,20-dione, assigned an efficacy of 1.0; for Rabbit PXR Activity: -log(EC50), EC50 in molar units
# T5 sequence (Q9TU02 1-411): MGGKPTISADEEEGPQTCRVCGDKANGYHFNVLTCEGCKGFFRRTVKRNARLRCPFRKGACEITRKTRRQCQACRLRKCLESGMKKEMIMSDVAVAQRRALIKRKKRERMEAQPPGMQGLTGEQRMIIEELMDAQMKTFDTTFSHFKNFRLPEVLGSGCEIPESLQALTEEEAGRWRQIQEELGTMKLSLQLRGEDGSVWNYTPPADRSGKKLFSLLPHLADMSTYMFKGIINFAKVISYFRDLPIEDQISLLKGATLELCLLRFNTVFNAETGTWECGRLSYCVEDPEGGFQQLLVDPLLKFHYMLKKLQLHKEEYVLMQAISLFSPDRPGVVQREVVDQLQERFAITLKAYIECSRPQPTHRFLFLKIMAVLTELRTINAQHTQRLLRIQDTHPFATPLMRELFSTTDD
# human PXR [4] = target: T4, human PXR
# chicken PXR [5] = target: T6, chicken PXR (Gallus gallus, UniProt Q9DFH3)
# T6 sequence (Q9DFH3 1-391): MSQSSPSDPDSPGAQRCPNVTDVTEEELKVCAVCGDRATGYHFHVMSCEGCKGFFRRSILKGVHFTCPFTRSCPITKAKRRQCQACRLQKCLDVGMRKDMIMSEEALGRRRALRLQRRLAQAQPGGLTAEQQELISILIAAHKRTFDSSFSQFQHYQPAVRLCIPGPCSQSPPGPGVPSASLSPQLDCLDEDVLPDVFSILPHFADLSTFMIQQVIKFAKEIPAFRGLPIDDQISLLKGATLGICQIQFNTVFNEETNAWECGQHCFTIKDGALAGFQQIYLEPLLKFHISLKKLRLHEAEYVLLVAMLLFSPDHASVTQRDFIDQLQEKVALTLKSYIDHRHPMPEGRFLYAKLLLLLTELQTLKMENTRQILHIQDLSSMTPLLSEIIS
# zebrafish PXR [6] = target: T1, zebrafish PXR; experiment: cell-based
# chicken PXR [7] = target: T6, chicken PXR; experiment: cell-based
# HepG2 cells [8] = experiment: Toxicity assays in HepG2 cells (MTT and alamar blue reduction); details: lowest concentration that produced significant toxicity in the HepG2 cells
# [9] = -log(EC50), EC50 in molar units, activation of human PXR
# [10] = -log(EC50), EC50 in molar units
smiles,measurement,setting,value
"CC(=O)[C@H]1[C@H](C#N)C[C@H]2[C@@H]3CC=C4C[C@@H](O)CC[C@]4(C)[C@H]3CC[C@@]21C [PR13, 5-Pregnen-16α-cyano-3β-ol-20-one]",zfPXR Activity,zebrafish PXR [1],None
same,Toxicity,HepG2 cells [2],None
same,"Mouse PXR efficacy, ε",mouse PXR,6.41 (ε = 1.0)
same,Mouse PXR Activity,mouse PXR,6.41 (ε = 1.0)
same,"Rat PXR efficacy, ε",rat PXR,6.20 (ε = 1.0)
same,Rat PXR Activity,rat PXR,6.20 (ε = 1.0)
same,hPXR Activity,human PXR [3]; [9],None
"CC(CCC(=O)NCC(=O)O)C1CCC2C3CCC4CC(O)CCC4(C)C3CC(O)C12C (stereo not shown) [BI009, Glycodeoxycholic acid]",EC50,rabbit PXR,15.5 µM
same,"Rabbit PXR efficacy, ε",rabbit PXR,0.40
"c1ccc2c(c1)cc1ccc3cccc4ccc2c1c34 [MI3, Benzo [a]pyren]",hPXR Efficacy,human PXR [4],0.55
same,zfPXR Efficacy,zebrafish PXR [1],0.06
same,zfPXR Activity,zebrafish PXR [1],4.00
same,Toxicity,HepG2 cells [2],100 µM
same,"Mouse PXR efficacy, ε",mouse PXR,0.94
same,Mouse PXR Activity,mouse PXR,4.86
same,"Rat PXR efficacy, ε",rat PXR,0.45
same,Rat PXR Activity,rat PXR,4.85
same,"Chicken PXR efficacy, ε",chicken PXR [5],0.50
same,Chicken PXR Activity,chicken PXR [5]; [10],4.40
same,Rabbit PXR Activity,rabbit PXR,No effect
same,hPXR Activity,human PXR [3]; [9],4.75
"C[C@]12CCC(=O)C[C@@H]1CC[C@@H]1[C@@H]2CC[C@]2(C)C=CC[C@@H]12 [AN22, 5α-Androst-16-en-3-one]",zfPXR Efficacy,zebrafish PXR [1]; zebrafish,0.68
same,Toxicity,"HepG2 cells [2]; human, 24 hr",100 µM
same,"Chicken PXR efficacy, ε",chicken PXR [5]; chicken,0.77
same,EC50,zebrafish PXR [6],2.63 µM
same,EC50,chicken PXR [7],10.2 µM
same,EC50,human PXR [3],3.02 µM
"C[C@H](CCC(=O)NCCS(=O)(=O)O)[C@H]1CC[C@H]2[C@@H]3[C@@H](O)[C@@H](O)[C@@H]4C[C@H](O)CC[C@]4(C)[C@H]3CC[C@]12C [BI046, 5β-Cholanic acid-3α,6β,7β-triol N-(2-sulfoethyl)-amide]",zfPXR Activity,zebrafish PXR [1],None
same,Mouse PXR Activity,mouse PXR,No effect
same,Rat PXR Activity,rat PXR,No effect
same,Chicken PXR Activity,chicken PXR [5]; [10],No effect
same,Rabbit PXR Activity,rabbit PXR,No effect
same,Toxicity,HepG2 cells [8],None
same,hPXR Activity,human PXR [3]; [9],None
"C[C@H](CCC(=O)NCCS(=O)(=O)O)[C@H]1CC[C@H]2[C@@H]3CC[C@@H]4C[C@H](O)CC[C@]4(C)[C@H]3C[C@H](O)[C@]12C [BI010, Taurodeoxycholic acid]",EC50,rabbit PXR,14.5 µM
same,"Rabbit PXR efficacy, ε",rabbit PXR,0.15
"CC(C)CCC[C@@H](C)[C@H]1CC[C@H]2[C@@H]3[C@H](O)C=C4C[C@@H](O)CC[C@]4(C)[C@H]3CC[C@]12C [BI047, 7α-Hydroxycholesterol]",zfPXR Activity,zebrafish PXR [1],None
same,Toxicity,HepG2 cells [2],None
same,Mouse PXR Activity,mouse PXR,No effect
same,Rat PXR Activity,rat PXR,No effect
same,Chicken PXR Activity,chicken PXR [5]; [10],No effect
same,Rabbit PXR Activity,rabbit PXR,No effect
same,hPXR Activity,human PXR [3]; [9],None
"C[C@]12CC[C@H](O)C[C@@H]1CC[C@@H]1[C@@H]2CC[C@]2(C)C=CC[C@@H]12 [AN21, 5α-Androst-16-en-3β-ol]",zfPXR Efficacy,zebrafish PXR [1]; zebrafish,2.11
same,Toxicity,"HepG2 cells [2]; human, 24 hr",50 µM
same,"Chicken PXR efficacy, ε",chicken PXR [5]; chicken,2.99
same,EC50,zebrafish PXR [6],3.31 µM
same,EC50,chicken PXR [7],7.24 µM
same,EC50,human PXR [3],4.79 µM
"C[C@H](CCC(=O)NCC(=O)O)[C@H]1CC[C@H]2[C@@H]3[C@H](O)C[C@@H]4C[C@H](O)CC[C@]4(C)[C@H]3C[C@H](O)[C@]12C [BI021, Glycocholic acid]",Mouse PXR Activity,mouse PXR,No effect
same,Rat PXR Activity,rat PXR,No effect
same,Chicken PXR Activity,chicken PXR [5],No effect
"C[C@]12CC[C@@H](O)C[C@@H]1CC[C@@H]1[C@@H]2CC[C@]2(C)[C@@H](O)CC[C@@H]12 [AN1, 5α-Androstan-3α,17β-diol]",hPXR Efficacy,human PXR [4]; human,0.68
same,zfPXR Efficacy,"zebrafish PXR [1]; relative to 20 μM 5α-androstan-3α-ol, assigned an efficacy of 1.0",0.84
same,Toxicity,HepG2 cells [2],None
same,"Chicken PXR efficacy, ε","chicken PXR [5]; relative to 20 μM nifedipine, assigned an efficacy of 1.0",2.28
same,EC50,"zebrafish PXR [6]; zfPXR Activity, -log(EC50), EC50 in molar units, activation of zebrafish PXR",6.46 µM
same,EC50,chicken PXR [7],8.51 µM
same,EC50,"human PXR [3]; hPXR Activity, -log(EC50), EC50 in molar units, activation of human PXR",4.17 µM
"CC(CCC(=O)NCC(=O)O)C1CCC2C3C(O)CC4CC(O)CCC4(C)C3CCC12C (stereo not shown) [BI006, Glycochenodeoxycholic acid]","Chicken PXR efficacy, ε",chicken PXR [5]; chicken,0.41
same,EC50,chicken PXR [7],25.1 µM
"C[C@H](CCC(=O)O)[C@H]1CC[C@H]2[C@@H]3C(=O)C[C@@H]4C[C@H](O)CC[C@]4(C)[C@H]3C[C@H](O)[C@]12C [BI042, 5β-Cholanic acid-3α,12α-diol-7-one]",zfPXR Activity,zebrafish PXR [1],None
same,Rabbit PXR Activity,rabbit PXR,4.31
same,"Rabbit PXR efficacy, ε",rabbit PXR,1.55
same,Toxicity,HepG2 cells [8],None
same,hPXR Activity,human PXR [3]; [9],4.24
same,hPXR Efficacy,"human PXR [3]; relative to 10 μM rifampicin, assigned an efficacy of 1.0",0.49
